Test results from PubChem BioAssay (NCI).
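Results reflect a 48-hour exposure of cells in 96-well plates to compound at five concentrations. The concentration for 50% growth inhibition is given as GI50. At the TGI there is no net growth.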

Experiments:
Assay in all cases: inhibition of tumour cell growth, NCI panel, 48 h
CCRF-CEM leukemia = tested on: CCRF-CEM leukemia
EKVX NSCLC = tested on: EKVX NSCLC
COLO 205 colon = tested on: COLO 205 colon
DU-145 prostate = tested on: DU-145 prostate
HCT-15 colon = tested on: HCT-15 colon
SK-OV-3 ovarian = tested on: SK-OV-3 ovarian
MDA-MB-468 breast = tested on: MDA-MB-468 breast
HS 578T breast = tested on: HS 578T breast
NCI-H460 lung = tested on: NCI-H460 lung
UO-31 renal = tested on: UO-31 renal
SW-620 colon = tested on: SW-620 colon
A498 renal = tested on: A498 renal
OVCAR-8 ovarian = tested on: OVCAR-8 ovarian
PC-3 prostate = tested on: PC-3 prostate
SR leukemia = tested on: SR leukemia
MOLT-4 leukemia = tested on: MOLT-4 leukemia
RXF 393 renal = tested on: RXF 393 renal
U251 CNS = tested on: U251 CNS
UACC-62 melanoma = tested on: UACC-62 melanoma
SNB-19 CNS = tested on: SNB-19 CNS
IGROV1 ovarian = tested on: IGROV1 ovarian
MDA-MB-435 = tested on: MDA-MB-435
SK-MEL-2 melanoma = tested on: SK-MEL-2 melanoma
OVCAR-4 ovarian = tested on: OVCAR-4 ovarian
HOP-92 NSCLC = tested on: HOP-92 NSCLC
ACHN renal = tested on: ACHN renal
LOX IMVI melanoma = tested on: LOX IMVI melanoma
OVCAR-5 ovarian = tested on: OVCAR-5 ovarian
786-0 renal = tested on: 786-0 renal
SK-MEL-28 melanoma = tested on: SK-MEL-28 melanoma
SK-MEL-5 melanoma = tested on: SK-MEL-5 melanoma
MDA-MB-231 breast = tested on: MDA-MB-231 breast
UACC-257 melanoma = tested on: UACC-257 melanoma
SF-295 CNS = tested on: SF-295 CNS
MALME-3M melanoma = tested on: MALME-3M melanoma
M14 melanoma = tested on: M14 melanoma
HT29 colon = tested on: HT29 colon
SF-539 CNS = tested on: SF-539 CNS
NCI-H23 lung = tested on: NCI-H23 lung
HCC-2998 colon = tested on: HCC-2998 colon
OVCAR-3 ovarian = tested on: OVCAR-3 ovarian
BT-549 breast = tested on: BT-549 breast
NCI-H522 lung = tested on: NCI-H522 lung
KM12 colon = tested on: KM12 colon
TK-10 renal = tested on: TK-10 renal
CAKI-1 renal = tested on: CAKI-1 renal
SN12C renal = tested on: SN12C renal
NCI-H226 lung = tested on: NCI-H226 lung
HCT-116 colon = tested on: HCT-116 colon
K-562 leukemia = tested on: K-562 leukemia
SF-268 CNS = tested on: SF-268 CNS
T-47D breast = tested on: T-47D breast
HL-60(TB) leukemia = tested on: HL-60(TB) leukemia
MCF7 breast = tested on: MCF7 breast
HOP-62 NSCLC = tested on: HOP-62 NSCLC
A549 NSCLC = tested on: A549 NSCLC

With CN(C)c1nc(NCCNS(=O)(=O)c2ccc(C(=O)/C=C/c3ccc(Cl)cc3)cc2)nc(N2CCOCC2)n1 the GI50 (CCRF-CEM leukemia) was 6.86 µM, the TGI (CCRF-CEM leukemia) was greater than 100 µM and the GI50 (EKVX NSCLC) was 14.8 µM. The TGI (EKVX NSCLC) was 28.7 µM, the GI50 (COLO 205 colon) was 16.7 µM and the TGI (COLO 205 colon) was 34.3 µM. The GI50 (DU-145 prostate) was 17.2 µM, the TGI (DU-145 prostate) was 34 µM and the GI50 (HCT-15 colon) was 2.07 µM. The TGI (HCT-15 colon) was 4.54 µM, the GI50 (SK-OV-3 ovarian) was 15.3 µM and the TGI (SK-OV-3 ovarian) was 30.2 µM. For the same compound, the GI50 (MDA-MB-468 breast) was 11 µM, the TGI (MDA-MB-468 breast) was 24.9 µM and the GI50 (HS 578T breast) was 15.8 µM. It also gave a TGI (HS 578T breast) of 60.5 µM, a GI50 (NCI-H460 lung) of 16.8 µM and a TGI (NCI-H460 lung) of 33.6 µM. For the same compound, the GI50 (UO-31 renal) was 11.4 µM, the TGI (UO-31 renal) was 23.5 µM and the GI50 (SW-620 colon) was 8.46 µM. It also gave a TGI (SW-620 colon) of 21.7 µM, a GI50 (A498 renal) of 12.4 µM and a TGI (A498 renal) of 25.1 µM. The GI50 (OVCAR-8 ovarian) was 14.8 µM, the TGI (OVCAR-8 ovarian) was 28.4 µM and the GI50 (PC-3 prostate) was 13 µM. For the same compound, the TGI (PC-3 prostate) was 29.6 µM, the GI50 (SR leukemia) was 2.52 µM and the TGI (SR leukemia) was greater than 100 µM. The GI50 (MOLT-4 leukemia) was 3.38 µM, the TGI (MOLT-4 leukemia) was 80.3 µM and the GI50 (RXF 393 renal) was 12.8 µM. For the same compound, the TGI (RXF 393 renal) was 27 µM, the GI50 (U251 CNS) was 8.17 µM and the TGI (U251 CNS) was 20.7 µM. It also gave a GI50 (UACC-62 melanoma) of 11.4 µM, a TGI (UACC-62 melanoma) of 23.7 µM and a GI50 (SNB-19 CNS) of 14.2 µM. The TGI (SNB-19 CNS) was 27.2 µM, the GI50 (IGROV1 ovarian) was 3.08 µM and the TGI (IGROV1 ovarian) was 11 µM. The GI50 (MDA-MB-435) was 12.8 µM, the TGI (MDA-MB-435) was 26.6 µM and the GI50 (SK-MEL-2 melanoma) was 16.6 µM. The TGI (SK-MEL-2 melanoma) was 30.4 µM, the GI50 (OVCAR-4 ovarian) was 14.7 µM and the TGI (OVCAR-4 ovarian) was 29 µM. For the same compound, the GI50 (HOP-92 NSCLC) was 15.1 µM, the TGI (HOP-92 NSCLC) was 32 µM and the GI50 (ACHN renal) was 13.5 µM. It also gave a TGI (ACHN renal) of 26.3 µM, a GI50 (LOX IMVI melanoma) of 1.71 µM and a TGI (LOX IMVI melanoma) of 3.24 µM. For the same compound, the GI50 (OVCAR-5 ovarian) was 15 µM, the TGI (OVCAR-5 ovarian) was 28.4 µM and the GI50 (786-0 renal) was 14.8 µM. It also gave a TGI (786-0 renal) of 28.8 µM, a GI50 (SK-MEL-28 melanoma) of 15.5 µM and a TGI (SK-MEL-28 melanoma) of 28.9 µM. For the same compound, the GI50 (SK-MEL-5 melanoma) was 16.3 µM, the TGI (SK-MEL-5 melanoma) was 30.1 µM and the GI50 (MDA-MB-231 breast) was 13.3 µM. For the same compound, the TGI (MDA-MB-231 breast) was 26.5 µM, the GI50 (UACC-257 melanoma) was 16.2 µM and the TGI (UACC-257 melanoma) was 30 µM. It also gave a GI50 (SF-295 CNS) of 13.3 µM, a TGI (SF-295 CNS) of 26.4 µM and a GI50 (MALME-3M melanoma) of 15.1 µM. The TGI (MALME-3M melanoma) was 28.6 µM, the GI50 (M14 melanoma) was 14.1 µM and the TGI (M14 melanoma) was 28.3 µM. For the same compound, the GI50 (HT29 colon) was 3.21 µM, the TGI (HT29 colon) was 10.4 µM and the GI50 (SF-539 CNS) was 14.7 µM. The TGI (SF-539 CNS) was 27.9 µM, the GI50 (NCI-H23 lung) was 15.7 µM and the TGI (NCI-H23 lung) was 29.5 µM. The GI50 (HCC-2998 colon) was 16.7 µM, the TGI (HCC-2998 colon) was 30.8 µM and the GI50 (OVCAR-3 ovarian) was 17.9 µM. For the same compound, the TGI (OVCAR-3 ovarian) was 35.5 µM, the GI50 (BT-549 breast) was 15.3 µM and the TGI (BT-549 breast) was 29.3 µM. The GI50 (NCI-H522 lung) was 14 µM, the TGI (NCI-H522 lung) was 27.3 µM and the GI50 (KM12 colon) was 16.9 µM. The TGI (KM12 colon) was 41.4 µM, the GI50 (TK-10 renal) was 15.8 µM and the TGI (TK-10 renal) was 29.4 µM. The GI50 (CAKI-1 renal) was 11.2 µM, the TGI (CAKI-1 renal) was 24.7 µM and the GI50 (SN12C renal) was 14.4 µM. It also gave a TGI (SN12C renal) of 27.8 µM, a GI50 (NCI-H226 lung) of 15.7 µM and a TGI (NCI-H226 lung) of 34 µM. It also gave a GI50 (HCT-116 colon) of 11.7 µM, a TGI (HCT-116 colon) of 24.3 µM and a GI50 (K-562 leukemia) of 3.71 µM. For the same compound, the TGI (K-562 leukemia) was greater than 100 µM, the GI50 (SF-268 CNS) was 17.7 µM and the TGI (SF-268 CNS) was 43.8 µM. For the same compound, the GI50 (T-47D breast) was 16.7 µM, the TGI (T-47D breast) was 42.2 µM and the GI50 (HL-60(TB) leukemia) was 14.7 µM. It also gave a TGI (HL-60(TB) leukemia) of 95.1 µM, a GI50 (MCF7 breast) of 2.37 µM and a TGI (MCF7 breast) of 6.39 µM. For the same compound, the GI50 (HOP-62 NSCLC) was 17.5 µM, the TGI (HOP-62 NSCLC) was 34 µM and the GI50 (A549 NSCLC) was 14.4 µM. The TGI (A549 NSCLC) was 28.5 µM.
